Laboratory results as given in US20230355599A1, “BIOMARKERS FOR CBL, AND COMPOSITIONS AND METHODS FOR THEIR USE” (NURIX THERAPEUTICS, INC., priority 2022, published 2023).

Assays:
phosphorylated HS1 [1] = assay: Phosphorylated HS1 in circulating CD8+ T cells of patients, Phase 1 trial (flow cytometry); type: in vivo, human
Protocol: Pharmacodynamic analysis of the proximal biomarker, phosphorylated HS1 is assessed in circulating CD8^+ T cells from patients that are being administered doses ranging from 5 to 50 mg of Compound 23 once daily and is being used to assess target engagement of Compound 23 as part of the dose/exposure-response profile. Whole blood is collected longitudinally and added into two types of TruCulture (Myriad) tubes. One tube contains media, and the second tube contains anti-CD3 and anti-CD28, which are subsequently crosslinked to induce cellular stimulation for pharmacodynamic analysis. Phosphorylated HS1 is assessed by flow cytometry pre and post dose on Cycle 1 Day 1 (C1D1) and Cycle 2 Day 1 (C2D1) to characterize single/multiple dose PD profiles.
% Maximal phosphorylated signal and % AUC are two commonly used parameters to assess the pharmacodynamic effects of drugs.
% Maximal phosphorylated signal refers to the maximum amount of a specific protein that becomes phosphorylated (i.e., modified by the addition of a phosphate group) in response to a drug or other stimulus. This parameter is often used to measure the activation of signaling pathways that are important for various cellular processes, including cell growth and differentiation, immune response, and metabolism.
% AUC, on the other hand, refers to the area under the curve (AUC) over time, expressed as a percentage of the maximum possible AUC. In summary, both % maximal phosphorylated signal and % AUC are useful parameters to assess the pharmacodynamic effects of drugs. % maximal phosphorylated signal is a measure of the activation of signaling pathways, while % AUC reflects the duration of the effect on PD signals. Both parameters can be used to evaluate the potency and duration of a drug's pharmacodynamic effects.

phosphorylated HS1 [2] = assay: Phosphorylated HS1 in circulating CD8+ T cells after oral dosing of cynomolgus monkeys (flow cytometry, ex vivo anti-CD3/CD28 stimulation)
Protocol: To assess these proximal biomarkers of Cbl-b inhibition on CD8^+ T cells, pharmacodynamic analysis was performed in conjunction with a pharmacokinetic study conducted at Charles River Laboratories. Circulating blood was obtained from cynomolgus monkeys treated with 0.3, 1, 3 or 10 mg/kg of Compound 23 after a single dose and after 3 doses. The response to Cbl-b inhibition on proximal biomarkers (pHS1, pPLCγ2, and pZAP70) was measured in CD8^+ T cells using flow cytometry. This technique is highly quantitative and can measure multiple phosphorylation markers in different cell populations within the same sample.
Compound 23 was formulated in vehicle (0.2% Tween 80 in DI water+1 eq HCL) and aliquoted into individual (not serially diluted) dosing solutions of 0.3, 1, 3 and 10 mg/mL by stirring for 5-10 min, vortexing, and sonicating again as necessary to produce an even suspension that was stirred constantly at 4° C. to achieve and maintain a homogenous suspension. To prepare vehicle, 0.2% Tween 80 in deionized (DI) water, water was measured into a beaker with continuous stirring. Tween 80 was added sequentially, and stirring continued until the solution dissolved; the solution was stored at 2-8° C.
For pharmacodynamic analysis, whole blood was obtained from cynomolgus monkeys and used for flow cytometry assays to evaluate phosphorylated biomarkers, pHS1, pPLCγ2, and pZAP70, in circulating CD8^+ T cells.
On the day of dosing, blood samples were collected via femoral venipuncture in accordance with test facility standard operating procedures. 1 mL/tube of whole blood was collected pre-dose (time 0) and at 0.5, 1, 2, 4, 6, and 24 hours post-dose and added into 2 types of TruCulture tubes (Myriad) for pharmacodynamic analysis. One tube contained media alone and is denoted as “Null”, and the second tube contained 2 μg/mL anti-CD3 and anti-CD28, which were prepared at Nurix prior to the study using cynomolgus specific anti-CD3 (BD Biosciences; SP34-2) and anti-CD28 (Bio X cell; CD28.2) and denoted as “CD3/CD28”. Tubes were shipped by overnight courier on cold pack the day of collection and analyzed for phosphorylated biomarkers of Cbl-b inhibition by flow cytometry.
Following PD collection, upon receipt of TruCulture tubes, each tube was inverted 5-6 times to ensure a mixed suspension of blood. 30 μg of goat anti-mouse IgG (H+L) antibody (Invitrogen) was added to cross-link the stimulation antibodies and induce synchronized cellular stimulation. Cells were stimulated for 60 minutes alongside non-stimulated controls for each time point.
All buffers (Phosflow Lyse/Fix Buffer 5×, Phosflow Perm Buffer I; BD Biosciences) were prepared according to the manufacturer's instructions. After 60 minutes of goat anti-mouse IgG (H+L) antibody stimulation, one volume of blood was mixed with 20 volumes of pre-warmed BD Phosflow Lyse/Fix Buffer (1×) by repeated pipetting (8-10 times), then incubated in a 37° C. water bath for 10 min. Cells were washed and centrifuged at 500×g for 5 min (2×) with PBS. Following centrifugation, cell pellets were resuspended in cold BD Phosflow Perm Buffer I (BD) and incubated at 4° C. for 20 min. […]

[3] = 5 mg once daily, n=1, cycle 1, day 1
[4] = 15 mg once daily, n=12, cycle 1, day 1
[5] = 25 mg once daily, n=7, cycle 1, day 1
[6] = 50 mg once daily, n=2, cycle 1, day 1

## C[C@H]1CCCN(Cc2cc3c(c(C(F)(F)F)c2)CN(c2cccc([C@]4(c5nncn5C)C[C@@H](C)C4)c2)C3=O)C1 [Compound 23]
Phosphorylated HS1 [1]; [3]
  % of phosphorylated HS1 expressing CD8+ T cells (maximal): 35%
  phosphorylated HS1 AUC: 578
Phosphorylated HS1 [1]; [4]
  % of phosphorylated HS1 expressing CD8+ T cells (maximal): 46%
  phosphorylated HS1 AUC: 787
Phosphorylated HS1 [1]; [5]
  % of phosphorylated HS1 expressing CD8+ T cells (maximal): 53%
  phosphorylated HS1 AUC: 876
Phosphorylated HS1 [1]; [6]
  % of phosphorylated HS1 expressing CD8+ T cells (maximal): 52%
  phosphorylated HS1 AUC: 1055
Phosphorylated HS1 [1]; Pearson correlation with PK parameters (AUC and CMAX), statistically significant slope p=0.02
  trend of AUC % pHS1 with PK: positive trend
Phosphorylated HS1 [2]; multiple doses of 10 mg/kg, 3 days of daily oral dosing
  phosphorylated HS1 in comparison to baseline: significant increases
Phosphorylated HS1 [2]; multiple doses of 10 mg/kg, 4 hours post dose
  time of peak increase of phosphorylated HS1: 76 h
Phosphorylated HS1 [2]; single dose oral 10 mg/kg
  time of maximal signal, phosphorylated HS1: 2 hours post dose
Phosphorylated HS1 [2]; single dose oral 10 mg/kg, after 24 hours
  phosphorylated HS1 sustained after 24 hours: significant increase
Phosphorylated HS1 [2]; single dose oral 10 mg/kg, circulating CD8+ T cells, anti-CD3/CD28 stimulated
  phosphorylated HS1 in comparison to baseline: significant increases
